Type in all cases: biochemical
The target in assay [1] is T1, zinc-induced Aβ42 aggregates (Homo sapiens, UniProt P05067).
T1 construct: 15 μM Aβ42 peptide in TrisHCl—NaCl buffer
Kind of assay: Bis-ANS fluorescence assay of disaggregation of zinc-induced Aβ42 aggregates. The note with it: for EC50: Aβ42 15 μM, bis-ANS 15 μM, Tris-buffered saline, with 15 μM Zn2+. As to the method:
Bis-ANS was used as a fluorescent marker for Aβ42 aggregation and disaggregation so as to determine the efficacy, EC50, of each test compound in the presence or absence of zinc(II). Baseline fluorescence was established by monitoring the fluorescence of 15 μM bis-ANS in a TrisHCl-NaCl buffer (TrisHCl-NaCl buffer: 0.50 mM TrisHCl, 1.50 mM NaCl, pH 7.4) that contains 15 μM Aβ42. After 5 minutes, Zn(II) (as zinc(II) sulfate, 15 μM final concentration) was added to the Aβ42 solution, and the fluorescence intensity monitored for 24-40 minutes. Fluorescence increases following the addition of Zn(II) during the aggregation period. After the aggregation period, varying concentrations (60, 15, 3.75, 0.938, 0.234, or 0 μM final concentration) of a test compound were added, and the fluorescence intensity again monitored until it plateaus, typically 20-24 min. […] Fluorescence intensities were determined at 390 nm excitation wavelength/490 nm emission wavelength with a 475 nm cutoff. […] The responses I0-If, were calculated as the difference in the final fluorescent intensity If, c at the end of the assay for each concentration as compared to the final intensity I0 determined for the sample with no added derivative. The responses were normalized to the maximum response […] which is the final fluorescent intensity of the sample containing 60 μM test compound, Normalized response=(I0-If)/(I0-[…]). The fluorescent intensities were then fit to a 4-parameter sigmoidal logistic function to determine EC50. In the presence of soluble Aβ42, zinc(II) induces aggregation within milliseconds. This aggregation is detected by an increase in bis-ANS fluorescence. Disaggregation of zinc-dependent aggregates can be detected by a decrease in the fluorescence of bis-ANS in the assay. FIG. 1 depicts the zinc(II) induced Aβ42 aggregation and the disaggregation by BC-147 of the zinc-induced aggregates, measured by bis-ANS fluorescence assay.

Assay [2] deals with T2, zinc-independent Aβ42 aggregates (Homo sapiens, UniProt P05067).
T2 construct: 15 μM Aβ42 peptide in TrisHCl—NaCl buffer
T2 sequence (P05067 672-713 limits assumed): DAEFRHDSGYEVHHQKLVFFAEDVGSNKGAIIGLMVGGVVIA
Put plainly: Bis-ANS fluorescence assay of disaggregation of zinc-independent Aβ42 aggregates. Particulars: for EC50: Aβ42 15 μM, bis-ANS 15 μM, Tris-buffered saline, without Zn2+; for Change in bis-ANS fluorescence after addition of compound to zinc-independent Aβ42 aggregates: 15 μM Aβ42, no Zn2+, compound at 60.0 to 0.234 μM (FIG. 2). As to the method: Bis-ANS was used as a fluorescent marker for Aβ42 aggregation and disaggregation so as to determine the efficacy, EC50, of each test compound in the presence or absence of zinc(II). Baseline fluorescence was established by monitoring the fluorescence of 15 μM bis-ANS in a TrisHCl-NaCl buffer (TrisHCl-NaCl buffer: 0.50 mM TrisHCl, 1.50 mM NaCl, pH 7.4) that contains 15 μM Aβ42. After 5 minutes, Zn(II) (as zinc(II) sulfate, 15 μM final concentration) was added to the Aβ42 solution, and the fluorescence intensity monitored for 24-40 minutes. Fluorescence increases following the addition of Zn(II) during the aggregation period. After the aggregation period, varying concentrations (60, 15, 3.75, 0.938, 0.234, or 0 μM final concentration) of a test compound were added, and the fluorescence intensity again monitored until it plateaus, typically 20-24 min. […] Fluorescence intensities were determined at 390 nm excitation wavelength/490 nm emission wavelength with a 475 nm cutoff. […] The responses I0-If, were calculated as the difference in the final fluorescent intensity If, c at the end of the assay for each concentration as compared to the final intensity I0 determined for the sample with no added derivative. The responses were normalized to the maximum response […] which is the final fluorescent intensity of the sample containing 60 μM test compound, Normalized response=(I0-If)/(I0-[…]). The fluorescent intensities were then fit to a 4-parameter sigmoidal logistic function to determine EC50. A representative example of disaggregation of spontaneously formed, zinc-independent Aβ42 aggregates by a test compound, BC-147, is given in FIG. 2. In the absence of zinc(II), soluble Aβ42 undergoes zinc-independent aggregation more slowly than aggregation in the presence of zinc(II). This spontaneous, zinc-independent aggregation of Aβ42 is detected by an increase in bis-ANS fluorescence. […] FIG. 2 depicts the disaggregation by BC-147 of the spontaneously formed, zinc-independent Aβ42 aggregates.

The target in the next assay is T3, amylin aggregates (Homo sapiens, UniProt P10997).
T3 construct: Amylin (15 μM) in TrisHCl—NaCl buffer was allowed to aggregate for 24 hr
T3 sequence (P10997 34-70 limits assumed): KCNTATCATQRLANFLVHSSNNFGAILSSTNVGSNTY
Kind of assay: Bis-ANS fluorescence assay of disaggregation of amylin aggregates. The note with it: 15 μM amylin; for EC50: bis-ANS 15 μM, Tris-buffered saline, compound added after 24 hr aggregation. As to the method: Amylin (15 μM) in TrisHCl—NaCl buffer was allowed to aggregate for 24 hr, while monitoring the fluorescence of bis-ANS (15 μM) as a marker of amylin aggregation. Typically, the fluorescence increases during the aggregation period. After the aggregation period, varying concentrations (60, 15, 3.75, 0.938, 0.234, or 0 μM final concentration) of a test compound were then added to the sample, and the fluorescence intensity monitored until it plateaus, typically an additional 20-24 hr. Controls were simultaneously run in which the test compound was added to a sample that contained Bis-ANS but no amylin so as to determine any interfering intrinsic fluorescence of the test compound itself (see Table 1).
A series of assays was also carried out so as to determine the EC50 for EGCG, by addition of 60, 15, 3.75, 0.938, 0.234, or 0 μM EGCG after 24 hours, similarly to the methods used to assay the test compounds.

T1 sequence (P05067 672-713 limits assumed): as the sequence (P05067 672-713 limits assumed) above

Take `N#CC(=Cc1cc2ccc(N(c3ccccc3)c3ccccc3)cc2o1)C(=O)O` [BC-146, 2-cyano-3-(6-(diphenylamino)benzofuran-2-yl)acrylic acid]: the EC50 – broadly, the concentration giving half of the maximal effect – in assay [1] is 540 nM; in assay [2], 4900 nM; on amylin aggregates, 520 nM.

As to `N#CC(=Cc1ccc(-c2cc3ccc(N(c4ccccc4)c4ccccc4)cc3o2)cc1)C(=O)O` [BC-147, 2-cyano-3-(4-(6-(diphenylamino)benzofuran-2-yl)phenyl)acrylic acid], in assay [1] (15 μM Aβ42, 15 μM Zn2+, compound at 60.0, 15.0, 3.75, 0.938 or 0.234 μM (FIG. 1)), the “Change in bis-ANS fluorescence after addition of compound to zinc-induced Aβ42 aggregates” value is “decrease in bis-ANS fluorescence”. Besides, the EC50 in assay [1] came to 3760 nM; in assay [2], 11500 nM; at amylin aggregates, 190 nM. Also, in assay [2], the “Change in bis-ANS fluorescence after addition of compound to zinc-independent Aβ42 aggregates” value is “decrease in bis-ANS fluorescence”.

For `N#CC(=Cc1ccc2cc(-c3ccc(N(c4ccccc4)c4ccccc4)cc3)oc2c1)C(=O)O` [BC-149, 2-cyano-3-(2-(4-(diphenylamino)phenyl)benzofuran-6-yl)acrylic acid], the EC50 was found to be 660 nM in assay [1], 500 nM in assay [2] and 150 nM on amylin aggregates.

As for `N#CC(=Cc1ccc2oc(-c3ccc(N(c4ccccc4)c4ccccc4)cc3)cc2c1)C(=O)O` [BC-151, 2-cyano-3-(2-(4-(diphenylamino)phenyl)benzofuran-5-yl)acrylic acid], the EC50 in assay [1] is 4930 nM; in assay [2], 610 nM; on amylin aggregates, 460 nM.

As to `N#CC(=Cc1ccc2cc(-c3ccc(N(c4ccccc4)c4ccccc4)cc3)oc2c1)C(N)=O` [BC-152, 2-cyano-3-(2-(4-(diphenylamino)phenyl)benzofuran-6-yl)acrylamide], the EC50 in assay [1] is 2700 nM; in assay [2] it was 1110 nM; at amylin aggregates it was 800 nM.

For the molecule `N#CC(C#N)=Cc1ccc2cc(-c3ccc(N(c4ccccc4)c4ccccc4)cc3)oc2c1` [BC-154, 2-((2-(4-(diphenylamino)phenyl)benzofuran-6-yl)methylene)malononitrile], the EC50 on amylin aggregates is 2090 nM.

For `NC(=O)C(=Cc1ccc2cc(-c3ccc(N(c4ccccc4)c4ccccc4)cc3)oc2c1)C(N)=O` [BC-155, 2-((2-(4-(diphenylamino)phenyl)benzofuran-6-yl)methylene)malonamide], the EC50 in assay [1] worked out at 1090 nM; in assay [2], 460 nM; on amylin aggregates, 180 nM.

As to `COc1ccc(N(c2ccc(OC)cc2)c2ccc(-c3cc4ccc(C=C(C#N)C(=O)O)cc4o3)cc2)cc1` [BC-156, 3-(2-(4-(bis(4-methoxyphenyl)amino)phenyl)benzofuran-6-yl)-2-cyanoacrylic acid], the figures for the EC50 (in assay [1]; in assay [2]; at amylin aggregates) were 1710 nM, 3010 nM and 310 nM, respectively.

`CC(C)(C)c1ccc(N(c2ccc(-c3cc4ccc(C=C(C#N)C(=O)O)cc4o3)cc2)c2ccc(C(C)(C)C)cc2)cc1` [BC-158, 3-(2-(4-(bis(4-(tert-butyl)phenyl)amino)phenyl)benzofuran-6-yl)-2-cyanoacrylic acid] had an EC50 at amylin aggregates of 1730 nM. Further, the “Change in bis-ANS fluorescence after addition of compound to amylin aggregates” value at amylin aggregates (compound at 60.0, 15.0, 3.75, 0.938 or 0.234 μM added at about 1440 min (FIG. 5)) is reported as “decrease in bis-ANS fluorescence”.

With `N#CC(=Cc1ccc2cc(-c3ccc(N(c4cccnc4)c4cccnc4)cc3)oc2c1)C(=O)O` [BC-159, 2-cyano-3-(2-(4-(di(pyridin-3-yl)amino)phenyl)benzofuran-6-yl)acrylic acid], the EC50 in assay [1] is 2220 nM; in assay [2], 5590 nM; on amylin aggregates, 1930 nM.

Turning to `COC(=O)C(C#N)=Cc1ccc2cc(-c3ccc(N(c4ccccc4)c4ccccc4)cc3)oc2c1` [BC-161, methyl 2-cyano-3-(2-(4-(diphenylamino)phenyl)benzofuran-6-yl)acrylate], the EC50 in assay [1] was found to be 4120 nM; in assay [2], 3220 nM; on amylin aggregates, 2540 nM.

Take `N#CC(=Cc1ccc2cc(-c3ccc(N(c4ccccc4)c4ccccc4)cc3)oc2c1)C(=O)NCc1ccccn1` [BC-163, 2-cyano-3-(2-(4-(diphenylamino)phenyl)benzofuran-6-yl)-N-(pyridin-2-ylmethyl)acrylamide]: the EC50 in assay [1] was found to be 2230 nM; in assay [2], 1760 nM; at amylin aggregates it was 1830 nM.

Turning to `N#CC(=Cc1ccc2cc(-c3ccc(N4CCCCC4)cc3)oc2c1)C(=O)O` [BC-166, 2-cyano-3-(2-(4-(piperidin-1-yl)phenyl)benzofuran-6-yl)acrylic acid], at amylin aggregates, it took 610 nM to reach a half-maximal effect (EC50).

On to `N#CC(=Cc1ccc2cc(-c3ccc(N4CCOCC4)cc3)oc2c1)C(=O)O` [BC-169, 2-cyano-3-(2-(4-morpholinophenyl)benzofuran-6-yl)acrylic acid], for which a half-maximal effect on amylin aggregates (EC50) was put at 840 nM.

`CCN(CC)c1ccc(-c2cc3ccc(C=C(C#N)C(=O)O)cc3o2)cc1` [BC-173, 2-cyano-3-(2-(4-(diethylamino)phenyl)benzofuran-6-yl)acrylic acid] gave an EC50 on amylin aggregates of 210 nM.

`CN(c1ccccc1)c1ccc(-c2cc3ccc(C=C(C#N)C(=O)O)cc3o2)cc1` [BC-175, 2-cyano-3-(2-(4-(methyl(phenyl)amino)phenyl)benzofuran-6-yl)acrylic acid] displayed a 50% effective concentration (EC50) on amylin aggregates of 140 nM.

Take `O=C(O)CN(CCN(CC(=O)O)CC(=O)O)CC(=O)O` [EDTA, reference compound]: the midpoint of the response in assay [1], the EC50, lay at 46100 nM. Moreover, the “Change in bis-ANS fluorescence after addition of compound to zinc-independent Aβ42 aggregates” value in assay [2] is given as “no effect”.

`O=C(O[C@@H]1Cc2c(O)cc(O)cc2O[C@@H]1c1cc(O)c(O)c(O)c1)c1cc(O)c(O)c(O)c1` [EGCG, Epigallocatechin gallate, reference compound]: on amylin aggregates, the EC50 was 860 nM. In other words, the sub-micromolar range.

These data come from US10590100B2, “Benzofuran derivatives for the treatment of CNS and other disorders” (WARNER BABCOCK INSTITUTE FOR GREEN CHEMISTRY, priority 2015, dated 2020).
